Data taken from patent publication US20080167314A1, “Condensed Imidazole Compound And Use Thereof” (priority 2004, published 2008).

| melting point | Structure (SMILES) |
| --- | --- |
| 251 to 252 °C | COc1cc(F)ccc1C(=O)Nc1cc(-c2c(-c3ccc(F)c(C)c3)nc3cccnn23)ccn1 [Example 42-8, 4-fluoro-N-{4-[2-(4-fluoro-3-methylphenyl)imidazo[1,2-b]pyridazin-3-yl]pyridin-2-yl}-2-methoxybenzamide] |
| 199 to 200 °C | Cc1cc(-c2nc3cccnn3c2-c2ccnc(NC(=O)c3ccoc3)c2)ccc1F [Example 42-33, N-{4-[2-(4-fluoro-3-methylphenyl)imidazo[1,2-b]pyridazin-3-yl]pyridin-2-yl}-3-furamide] |
| 229 to 230 °C | Cc1cc(-c2nc3cccnn3c2-c2ccnc(NC(=O)NCC(F)(F)F)c2)ccc1F [Example 51-2, N-{4-[2-(4-fluoro-3-methylphenyl)imidazo[1,2-b]pyridazin-3-yl]pyridin-2-yl}-N′-(2,2,2-trifluoroethyl)urea] |
| 218 to 220 °C | Cc1cc(-c2nc3cccnn3c2-c2ccnc(NC(=O)NC3CCC(O)CC3)c2)ccc1F (centres unmarked) [Example 51-10, N-{4-[2-(4-fluoro-3-methylphenyl)imidazo[1,2-b]pyridazin-3-yl]pyridin-2-yl}-N′-(4-hydroxycyclohexyl)urea] |
| 204 to 205 °C | Cc1cc(-c2nc3cccnn3c2-c2ccnc(NC(=O)NCCS(C)(=O)=O)c2)ccc1F [Example 51-5, N-{4-[2-(4-fluoro-3-methylphenyl)imidazo[1,2-b]pyridazin-3-yl]pyridin-2-yl}-N′-[2-(methylsulfonyl)ethyl]urea] |
| 225 to 226 °C | Cc1cc(-c2nc3cccnn3c2-c2ccnc(NC(=O)c3ccc(Cl)nc3)c2)ccc1F [Example 42-24, 6-chloro-N-{4-[2-(4-fluoro-3-methylphenyl)imidazo[1,2-b]pyridazin-3-yl]pyridin-2-yl}nicotinamide] |
| 240 to 241 °C | Cc1cc(-c2nc3cccnn3c2-c2ccnc(NC(=O)NC3CCOCC3)c2)ccc1F [Example 51-15, N-{4-[2-(4-fluoro-3-methylphenyl)imidazo[1,2-b]pyridazin-3-yl]pyridin-2-yl}-N′-(tetrahydro-2H-pyran-4-yl)urea] |
| 204 to 206 °C | Cc1cc(-c2nc3cccnn3c2-c2ccnc(NC(=O)Nc3ccc(C#N)cc3)c2)ccc1F [Example 47-5, N-(4-cyanophenyl)-N′-{4-[2-(4-fluoro-3-methylphenyl)imidazo[1,2-b]pyridazin-3-yl]pyridin-2-yl}urea] |
| 158 to 159 °C | CSCCC(=O)Nc1cc(-c2c(-c3ccc(F)c(C)c3)nc3cccnn23)ccn1 [Example 42-5, N-{4-[2-(4-fluoro-3-methylphenyl)imidazo[1,2-b]pyridazin-3-yl]pyridin-2-yl}-3-(methylthio)propanamide] |
| 258 to 259 °C | Cc1cc(-c2nc3cccnn3c2-c2ccnc(NC(=O)c3cccnc3C)c2)ccc1F [Example 42-29, N-{4-[2-(4-fluoro-3-methylphenyl)imidazo[1,2-b]pyridazin-3-yl]pyridin-2-yl}-2-methylnicotinamide] |
| 187 to 188 °C | Cc1cc(-c2nc3cccnn3c2-c2ccnc(NC(=O)c3ccc4ccccc4c3)c2)ccc1F [Example 42-19, N-{4-[2-(4-fluoro-3-methylphenyl)imidazo[1,2-b]pyridazin-3-yl]pyridin-2-yl}-2-naphthamide] |
| 245 to 246 °C | Cc1cc(-c2nc3cccnn3c2-c2ccnc(NC(=O)c3ccc(N(C)C)cc3)c2)ccc1F [Example 42-10, 4-(dimethylamino)-N-{4-[2-(4-fluoro-3-methylphenyl)imidazo[1,2-b]pyridazin-3-yl]pyridin-2-yl}benzamide] |
| 187 to 188 °C | CCC(CC)NC(=O)Nc1cc(-c2c(-c3ccc(F)c(C)c3)nc3cccnn23)ccn1 [Example 51-4, N-(1-ethylpropyl)-N′-{4-[2-(4-fluoro-3-methylphenyl)imidazo[1,2-b]pyridazin-3-yl]pyridin-2-yl}urea] |

The remaining lines, values behind:

| Structure (SMILES) | melting point |
| --- | --- |
| CCCNC(=O)Nc1cc(-c2c(-c3ccc(F)cc3)nc3cccnn23)ccn1 [Example Compound 28-9, N-{4-[2-(4-fluorophenyl)imidazo[1,2-b]pyridazin-3-yl]pyridin-2-yl}-N′-propylurea] | 219 to 220 °C |
| CCNc1cc(-c2c(-c3cccc(C)c3)nc3cccnn23)ccn1 [Example Compound 6-26, N-ethyl-4-[2-(3-methylphenyl)imidazo[1,2-b]pyridazin-3-yl]pyridin-2-amine] | 151 to 153 °C |
| Cc1cccc(-c2nc3cccnn3c2-c2ccnc(NC(=O)NC(C)C)c2)c1 [Example Compound 27-6, N-isopropyl-N′-{4-[2-(3-methylphenyl)imidazo[1,2-b]pyridazin-3-yl]pyridin-2-yl}urea] | 193 to 195 °C |
| Nc1cc(-c2c(-c3ccc(Cl)cc3)nc3cccnn23)ccn1 [Example Compound 16-2, 4-[2-(4-chlorophenyl)imidazo[1,2-b]pyridazin-3-yl]pyridin-2-amine] | 252 to 253 °C |
| Cc1cccc(-c2nc3cccnn3c2-c2ccnc(NC3CCCC3)c2)c1 [Example Compound 6-2, N-cyclopentyl-4-[2-(3-methylphenyl)imidazo[1,2-b]pyridazin-3-yl]pyridin-2-amine] | 130 to 131 °C |
| Cc1cccc(-c2nc3cccnn3c2-c2ccnc(NCc3ccccc3)c2)c1 [Example Compound 6-23, N-benzyl-4-[2-(3-methylphenyl)imidazo[1,2-b]pyridazin-3-yl]pyridin-2-amine] | 193 to 194 °C |
| Nc1cc(-c2c(-c3cccc(Cl)c3)nc3ccc(Cl)nn23)ccn1 [Example Compound 13-1, 4-[6-chloro-2-(3-chlorophenyl)imidazo[1,2-b]pyridazin-3-yl]pyridin-2-amine] | 268 to 269 °C |
| Cc1cc(-c2nc3c(C)ccnn3c2-c2ccnc(N)c2)ccc1F [Example Compound 37-2, 4-[2-(4-fluoro-3-methylphenyl)-8-methylimidazo[1,2-b]pyridazin-3-yl]-2-pyridylamine] | 212 to 213 °C |
| Cc1cccc(-c2nc3cccnn3c2-c2ccnc(NC(=O)c3ccccc3F)c2)c1 [Example Compound 20-5, 2-fluoro-N-{4-[2-(3-methylphenyl)imidazo[1,2-b]pyridazin-3-yl]pyridin-2-yl}benzamide] | 180 to 181 °C |
| COc1ccc(CC(=O)Nc2cc(-c3c(-c4cccc(C)c4)nc4cccnn34)ccn2)cc1 [Example Compound 20-12, 2-(4-methoxyphenyl)-N-{4-[2-(3-methylphenyl)imidazo[1,2-b]pyridazin-3-yl]pyridin-2-yl}acetamide] | 213 to 214 °C |
| Cc1cc(-c2nc3cccnn3c2-c2ccnc(N3CCCNC3=O)c2)ccc1F [Example 55, 1-{4-[2-(4-Fluoro-3-methylphenyl)imidazo[1,2-b]pyridazin-3-yl]pyridin-2-yl}tetrahydropyrimidine-2-(1H)-one] | 213 to 215 °C |
| Cc1cc(-c2nc3cc(C(C)(C)C)c(Cl)nn3c2-c2ccnc(NC(=O)c3ccc(F)cc3)c2)ccc1F [Example 41-3, N-{4-[7-tert-butyl-6-chloro-2-(4-fluoro-3-methylphenyl)imidazo[1,2-b]pyridazin-3-yl]-2-pyridyl}-4-fluorobenzamide] | 181 to 182 °C |
| Cc1cccc(-c2nc3cccnn3c2-c2ccnc(N)c2)c1 [Example 14, 4-[2-(3-Methylphenyl)imidazo[1,2-b]pyridazin-3-yl]pyridin-2-amine] | 188 to 189 °C |
